# Results reported in patent US6500466B2, “Chlorhexidine formulations, new chlorhexidine salts, solutions containing these and their use” (Degussa AG, priority 1998, dated 2002).
# Tests used:
# [1] = Storage trials: production of p-chloroaniline in aqueous 20 wt. % solutions and in powdered mixtures (FIG. 1, FIG. 2); type: physicochemical; settings: aqueous solution stored at constant 40° C.
# Text: The composition and appearance of gluconate solutions are subject to the requirements of the European Pharmacopoeia and the American Pharmacopoeia. One of the purity requirements is a concentration of p-chloroaniline limited to 500 ppm. In a reaction which is the reverse of forming the chlorhexidine base from hexamethylenebicyanoguanidine and p-chloroaniline, p-chloroaniline can be reversibly eliminated from these solutions on dissolving the base in D(+) glucono-6-lactone, the internal ester of D(+)-gluconic acid, wherein the solutions discolor and become increasingly yellow to brown. Decomposition of chlorhexidine solutions depends on the pH of the solution and in particular on the storage temperature. Tests show (FIG. 1), that the permissible p-chloroaniline values are exceeded after about one month when stored at a constant temperature of 40° C. Solutions of CHD-gluconate which are stable over the long-term have not hitherto been disclosed. The use of these solutions in regions with a tropical climate is therefore a problem which has not hitherto been resolved satisfactorily. Therefore, there is a need for chlorhexidine salt solutions which tend to decompose to only a small extent when used under extreme climatic conditions, in particular at high temperatures.
# The problem of long-term p-chloroaniline production cannot be solved by the invention of new anions. […]
# [2] = background statement; cited from earlier work
# [3] = Light sensitivity and stability compared with the gluconate; type: physicochemical
compound,measurement,setting,value
N=C(NCCCCCCNC(=N)NC(=N)Nc1ccc(Cl)cc1)NC(=N)Nc1ccc(Cl)cc1.O=C(O)[C@H](O)[C@@H](O)[C@H](O)[C@H](O)CO.O=C(O)[C@H](O)[C@@H](O)[C@H](O)[C@H](O)CO [Chlorhexidine digluconate],time after which permissible p-chloroaniline values (500 ppm) are exceeded,[1],about one
"[H]/N=C(\N/C(=N/[H])NCCCCCCNC(=N)NC(=N)Nc1ccc(Cl)cc1)Nc1ccc(Cl)cc1 [Chlorhexidine, 1,1′-hexamethylene-bis-[5,4-chlorophenyl]-biguanide]",solubility in water,[2],very low solubility in water
chlorhexidine ascorbate,light sensitivity relative to the gluconate,[3],more light sensitive
same,stability relative to the gluconate,[3],more unstable than the gluconate
